Measured values as given in the supplement of paper PMC10307832.

Tests used:
Assay in all cases: relative viability (nuclei count vs DMSO), 5 days (fraction); higher = more cells survive
201T = system: 201T
Outline: (§1)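 Relative viability is defined as nuclei in treated wells over nuclei in vehicle wells. Duplicate plates were run and medians reported. Lung cancer cell lines in 1536-well plates were dosed by pin tool one day after seeding, with one drug or with a fixed anchor-drug dose plus five library-drug doses (not always all listed) in √10 steps, and nuclei were counted after 5 days.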

PC-14 = system: PC-14
Outline: as §1

NCI-H650 = system: NCI-H650
Outline: as §1

NCI-H1666 = system: NCI-H1666
Outline: as §1

H3255 = system: H3255
Outline: as §1

HCC-78 = system: HCC-78
Outline: as §1

ChaGo-K-1 = system: ChaGo-K-1
Outline: as §1

LC-2-ad = system: LC-2-ad
Outline: as §1

NCI-H2347 = system: NCI-H2347
Outline: as §1

NCI-H520 = system: NCI-H520
Outline: as §1

NCI-H2405 = system: NCI-H2405
Outline: as §1

NCI-H2087 = system: NCI-H2087
Outline: as §1

NCI-H23 = system: NCI-H23
Outline: as §1

RERF-LC-KJ = system: RERF-LC-KJ
Outline: as §1

NCI-H1915 = system: NCI-H1915
Outline: as §1

HCC-827 = system: HCC-827
Outline: as §1

NCI-H647 = system: NCI-H647
Outline: as §1

COR-L 105 = system: COR-L 105
Outline: as §1

EPLC-272H = system: EPLC-272H
Outline: as §1

NCI-H2126 = system: NCI-H2126
Outline: as §1

NCI-H661 = system: NCI-H661
Outline: as §1

**Q.** Which results are given for CC(=O)O[C@@]12CO[C@@H]1C[C@H](O)[C@@]1(C)C(=O)[C@H](O)C3=C(C)[C@@H](OC(=O)[C@H](O)[C@@H](NC(=O)OC(C)(C)C)c4ccccc4)C[C@@](O)([C@@H](OC(=O)c4ccccc4)[C@H]21)C3(C)C [Docetaxel] + CC(=O)c1c(C)c2cnc(Nc3ccc(N4CCNCC4)cn3)nc2n(C2CCCC2)c1=O [Palbociclib] (partner 0.5 µM)?
**A.** relative viability (201T; first compound 0.0002 µM): 0.357; relative viability (201T; first compound 0.000632 µM): 0.369; relative viability (201T; first compound 0.002 µM): 0.367; relative viability (201T; first compound 0.006325 µM): 0.388; relative viability (201T; first compound 0.02 µM): 0.335; relative viability (PC-14; first compound 0.0002 µM): 0.466; relative viability (PC-14; first compound 0.000632 µM): 0.501; relative viability (PC-14; first compound 0.002 µM): 0.0828; relative viability (PC-14; first compound 0.006325 µM): 0.0351; relative viability (PC-14; first compound 0.02 µM): 0.0299; relative viability (NCI-H650; first compound 0.0002 µM): 0.34; relative viability (NCI-H650; first compound 0.000632 µM): 0.305; relative viability (NCI-H650; first compound 0.002 µM): 0.222; relative viability (NCI-H650; first compound 0.006325 µM): 0.211; relative viability (NCI-H650; first compound 0.02 µM): 0.193; relative viability (NCI-H1666; first compound 0.0002 µM): 0.628; relative viability (NCI-H1666; first compound 0.000632 µM): 0.666; relative viability (NCI-H1666; first compound 0.002 µM): 0.795; relative viability (NCI-H1666; first compound 0.006325 µM): 0.712; relative viability (NCI-H1666; first compound 0.02 µM): 0.581; relative viability (H3255; first compound 0.0002 µM): 0.323; relative viability (H3255; first compound 0.000632 µM): 0.304; relative viability (H3255; first compound 0.002 µM): 0.296; relative viability (H3255; first compound 0.006325 µM): 0.308; relative viability (H3255; first compound 0.02 µM): 0.282; relative viability (HCC-78; first compound 0.0002 µM): 0.388; relative viability (HCC-78; first compound 0.000632 µM): 0.481; relative viability (HCC-78; first compound 0.002 µM): 0.435; relative viability (HCC-78; first compound 0.006325 µM): 0.457; relative viability (HCC-78; first compound 0.02 µM): 0.4; relative viability (ChaGo-K-1; first compound 0.0002 µM): 0.883; relative viability (ChaGo-K-1; first compound 0.000632 µM): 0.677; relative viability (ChaGo-K-1; first compound 0.002 µM): 0.418; relative viability (ChaGo-K-1; first compound 0.006325 µM): 0.313; relative viability (LC-2-ad; first compound 0.0002 µM): 0.438; relative viability (LC-2-ad; first compound 0.000632 µM): 0.448; relative viability (LC-2-ad; first compound 0.002 µM): 0.334; relative viability (LC-2-ad; first compound 0.006325 µM): 0.284; relative viability (LC-2-ad; first compound 0.02 µM): 0.233; relative viability (NCI-H2347; first compound 0.0002 µM): 0.375; relative viability (NCI-H2347; first compound 0.000632 µM): 0.429; relative viability (NCI-H2347; first compound 0.002 µM): 0.408; relative viability (NCI-H2347; first compound 0.006325 µM): 0.373; relative viability (NCI-H2347; first compound 0.02 µM): 0.343; relative viability (NCI-H520; first compound 0.0002 µM): 0.192; relative viability (NCI-H520; first compound 0.000632 µM): 0.253; relative viability (NCI-H520; first compound 0.002 µM): 0.209; relative viability (NCI-H520; first compound 0.006325 µM): 0.189; relative viability (NCI-H520; first compound 0.02 µM): 0.122; relative viability (NCI-H2405; first compound 0.0002 µM): 0.525; relative viability (NCI-H2405; first compound 0.000632 µM): 0.513; relative viability (NCI-H2405; first compound 0.002 µM): 0.456; relative viability (NCI-H2405; first compound 0.006325 µM): 0.401; relative viability (NCI-H2405; first compound 0.02 µM): 0.29; relative viability (NCI-H2087; first compound 0.0002 µM): 0.218; relative viability (NCI-H2087; first compound 0.000632 µM): 0.179; relative viability (NCI-H2087; first compound 0.002 µM): 0.135; relative viability (NCI-H2087; first compound 0.006325 µM): 0.144; relative viability (NCI-H2087; first compound 0.02 µM): 0.102; relative viability (NCI-H23; first compound 0.0002 µM): 0.562; relative viability (NCI-H23; first compound 0.000632 µM): 0.523; relative viability (NCI-H23; first compound 0.002 µM): 0.348; relative viability (NCI-H23; first compound 0.006325 µM): 0.168; relative viability (NCI-H23; first compound 0.02 µM): 0.163; relative viability (RERF-LC-KJ; first compound 0.0002 µM): 1.02; relative viability (RERF-LC-KJ; first compound 0.000632 µM): 1.37; relative viability (RERF-LC-KJ; first compound 0.002 µM): 0.381; relative viability (RERF-LC-KJ; first compound 0.006325 µM): 0.249; relative viability (RERF-LC-KJ; first compound 0.02 µM): 0.165; relative viability (NCI-H1915; first compound 0.0002 µM): 0.506; relative viability (NCI-H1915; first compound 0.000632 µM): 0.464; relative viability (NCI-H1915; first compound 0.002 µM): 0.219; relative viability (NCI-H1915; first compound 0.006325 µM): 0.149; relative viability (NCI-H1915; first compound 0.02 µM): 0.102; relative viability (HCC-827; first compound 0.0002 µM): 0.508; relative viability (HCC-827; first compound 0.000632 µM): 0.446; relative viability (HCC-827; first compound 0.002 µM): 0.375; relative viability (HCC-827; first compound 0.006325 µM): 0.213; relative viability (HCC-827; first compound 0.02 µM): 0.197; relative viability (NCI-H647; first compound 0.0002 µM): 0.3; relative viability (NCI-H647; first compound 0.000632 µM): 0.387; relative viability (NCI-H647; first compound 0.002 µM): 0.11; relative viability (NCI-H647; first compound 0.006325 µM): 0.0808; relative viability (NCI-H647; first compound 0.02 µM): 0.062; relative viability (COR-L 105; first compound 0.0002 µM): 0.393; relative viability (COR-L 105; first compound 0.000632 µM): 0.403; relative viability (COR-L 105; first compound 0.002 µM): 0.368; relative viability (COR-L 105; first compound 0.006325 µM): 0.353; relative viability (COR-L 105; first compound 0.02 µM): 0.338; relative viability (EPLC-272H; first compound 0.0002 µM): 0.374; relative viability (EPLC-272H; first compound 0.000632 µM): 0.341; relative viability (EPLC-272H; first compound 0.002 µM): 0.236; relative viability (EPLC-272H; first compound 0.006325 µM): 0.204; relative viability (EPLC-272H; first compound 0.02 µM): 0.148; relative viability (NCI-H2126; first compound 0.0002 µM): 0.378; relative viability (NCI-H2126; first compound 0.000632 µM): 0.356; relative viability (NCI-H2126; first compound 0.002 µM): 0.332; relative viability (NCI-H2126; first compound 0.006325 µM): 0.261; relative viability (NCI-H661; first compound 0.0002 µM): 0.42; relative viability (NCI-H661; first compound 0.000632 µM): 0.448; relative viability (NCI-H661; first compound 0.002 µM): 0.472; relative viability (NCI-H661; first compound 0.006325 µM): 0.377; relative viability (NCI-H661; first compound 0.02 µM): 0.359
